According to patent US20260070887A1 (Shenzhen Zhongge Biological Technology Co., Ltd., priority 2022, published 2026):
Read-outs that look alike come from different tables or passages of the source.

What was measured:
[1] = target: KIF18A (Homo sapiens (Human), UniProt Q8NI77); experiment: KIF18A ATPase activity under tubulin stimulation (ADP-Glo assay); format: biochemical; conditions: KIF18A 30 nM, ATP 150 μM, pig microtubules
[2] = test system: OVCAR-3 cells; experiment: OVCAR-3 cell proliferation (Cell Titer-Glo, 10 days); format: cell-based, human
How it was run: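 IC50 was fitted by nonlinear regression of percent inhibition versus the 0.1% DMSO control. Luminescence was read with Cell Titer-Glo after 10 days of co-culture of logarithmic-phase cells (400/well) with compound at 0.12 nM–10 μM final, in medium with 20% fetal bovine serum and 0.01 mg/mL insulin.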

[3] = test system: A2780 cells; experiment: A2780 cell anti-proliferation assay; format: cell-based; conditions: 6 days, Cell Titer-Glo
Method: A2780 (ECACC) cells were cultured in RPMI-1640 complete medium (Gibco, A1049101) containing 10% fetal bovine serum (Gibco, 10099-141C), 100 U penicillin and 100 μg/mL streptomycin (Gibco, 15140-122). The Promega kit Cell Titer-Glo (Promega: G7572) was used in this method for test.
A2780 cells were cultured in T75 cell flasks (Corning, 430641) and the cells were placed in a 37° C., 5% CO2 incubator. Cells were passaged when reaching a cell density of 70%-80%, once every five days. To perform the experiment, the test compounds were dissolved in DMSO to prepare a 10 mM stock solution, and the test compounds were added to the 384-well cell test plate (Corning, 3765) at the predetermined concentration (19.5 nM-[…]) using ECHO. A2780 cells were digested and 4000 cells (60 μL medium) were seeded per well in the test plate. The 384-well plate was then centrifuged at 500 rpm for 1 minute, and then placed in a 37° C., 5% CO2 incubator for 6 days of cultivation. Six days later, the cell culture plate was equilibrated for 10 minutes at room temperature, 25 μL of Cell Titer-Glo was added to each well, and the mixture was shaken and mixed well and let stand for 5 minutes. The luminescence values for samples in various wells were read using a microplate reader in Luminescence mode.
The percentage of inhibition of A2780 cell proliferation by the test compound at each concentration was calculated by comparing with the values of the control group (0.2% DMSO). The IC50 values of the compounds were obtained by concentration-inhibition rate nonlinear regression analysis of the test compounds using GraphPad Prism 9.

Chain of KIF18A (Q8NI77 whole entry): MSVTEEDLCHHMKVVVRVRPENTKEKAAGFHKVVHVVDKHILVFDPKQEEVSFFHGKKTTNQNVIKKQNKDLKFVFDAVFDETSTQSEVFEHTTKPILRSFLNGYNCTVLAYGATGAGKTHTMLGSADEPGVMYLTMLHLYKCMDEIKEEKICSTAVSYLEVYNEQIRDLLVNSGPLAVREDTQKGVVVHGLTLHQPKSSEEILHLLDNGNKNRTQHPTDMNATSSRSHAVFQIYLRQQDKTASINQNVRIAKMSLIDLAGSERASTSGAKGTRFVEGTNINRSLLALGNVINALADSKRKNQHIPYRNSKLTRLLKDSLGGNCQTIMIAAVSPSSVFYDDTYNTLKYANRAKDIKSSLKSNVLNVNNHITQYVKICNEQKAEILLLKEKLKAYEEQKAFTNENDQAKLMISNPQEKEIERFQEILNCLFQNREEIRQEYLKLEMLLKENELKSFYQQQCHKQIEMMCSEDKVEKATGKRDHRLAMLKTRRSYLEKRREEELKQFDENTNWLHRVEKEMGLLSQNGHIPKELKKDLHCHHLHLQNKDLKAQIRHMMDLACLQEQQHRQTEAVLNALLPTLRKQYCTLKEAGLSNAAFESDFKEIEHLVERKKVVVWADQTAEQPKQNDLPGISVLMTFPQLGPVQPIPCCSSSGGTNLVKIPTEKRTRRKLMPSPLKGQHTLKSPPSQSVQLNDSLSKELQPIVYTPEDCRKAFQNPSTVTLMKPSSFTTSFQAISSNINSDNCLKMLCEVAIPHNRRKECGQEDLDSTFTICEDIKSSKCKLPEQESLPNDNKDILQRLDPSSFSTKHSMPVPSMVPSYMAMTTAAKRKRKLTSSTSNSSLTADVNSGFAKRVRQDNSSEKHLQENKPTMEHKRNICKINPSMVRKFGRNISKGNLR
Chain of KIF18A (P02550 whole entry partner): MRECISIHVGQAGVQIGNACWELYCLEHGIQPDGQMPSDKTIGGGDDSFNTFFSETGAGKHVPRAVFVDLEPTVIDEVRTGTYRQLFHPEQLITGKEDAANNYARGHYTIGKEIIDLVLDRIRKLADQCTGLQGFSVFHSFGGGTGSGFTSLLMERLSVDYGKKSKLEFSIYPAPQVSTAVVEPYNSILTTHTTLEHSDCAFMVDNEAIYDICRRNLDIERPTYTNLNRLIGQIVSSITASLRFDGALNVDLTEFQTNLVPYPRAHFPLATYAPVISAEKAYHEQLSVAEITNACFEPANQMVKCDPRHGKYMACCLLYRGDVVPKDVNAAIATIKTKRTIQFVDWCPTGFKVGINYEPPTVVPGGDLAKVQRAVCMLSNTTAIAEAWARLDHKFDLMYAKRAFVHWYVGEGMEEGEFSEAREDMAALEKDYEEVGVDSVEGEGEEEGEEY
Chain of KIF18A (P02554 whole entry partner): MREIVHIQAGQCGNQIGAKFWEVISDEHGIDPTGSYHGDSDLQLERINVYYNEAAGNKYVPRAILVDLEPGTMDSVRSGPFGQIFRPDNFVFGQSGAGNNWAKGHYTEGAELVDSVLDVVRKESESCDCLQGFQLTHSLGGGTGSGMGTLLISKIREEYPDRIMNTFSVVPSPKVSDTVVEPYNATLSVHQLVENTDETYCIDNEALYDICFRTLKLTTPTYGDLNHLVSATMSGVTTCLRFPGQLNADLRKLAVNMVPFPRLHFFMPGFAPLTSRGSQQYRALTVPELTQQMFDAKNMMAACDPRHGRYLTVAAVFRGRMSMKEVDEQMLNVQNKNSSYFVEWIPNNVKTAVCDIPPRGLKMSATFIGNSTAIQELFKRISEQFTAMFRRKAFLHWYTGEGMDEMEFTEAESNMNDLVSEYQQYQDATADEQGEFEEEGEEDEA

Row | Structure (SMILES) | IC50 [1] [nM] | IC50 [2] [nM] | IC50 [3] [nM] | IC50 ([3]; Homo sapiens, A2780, 144 h) [nM] | IC50 ([2]; Homo sapiens, OVCAR-3, 240 h) [nM]
1 | CC1Cn2c(cc3c(NC(=O)c4ccc(NS(=O)(=O)CCO)cc4N4CCC5(CC4)CC5)cccc32)C(C)O1 (single isomer, unassigned) [Compound 312-P2A, N-(1,3-dimethyl-3,4-dihydro-1H-[1,4]oxazino[4,3-a]indol-9-yl)-4-((2-hydroxyethyl)sulfonamido)-2-(6-azaspiro[2.5]oct-6-yl)benzamide] | ≤ 50 | ≤ 50 | 6500 | – | –
2 | CC1Cn2c(cc3c(NC(=O)c4ccc(NS(=O)(=O)CCO)cc4N4CCC5(CC4)CC5)cccc32)C(C)O1 (single isomer, unassigned) [Compound 312-P3, N-(1,3-dimethyl-3,4-dihydro-1H-[1,4]oxazino[4,3-a]indol-9-yl)-4-((2-hydroxyethyl)sulfonamido)-2-(6-azaspiro[2.5]oct-6-yl)benzamide] | 50 to 500 | ≤ 50 | – | > 10000 | –
3 | COC1c2cc3c(NC(=O)c4ccc(NS(=O)(=O)CCO)cc4N4CCC5(CC4)CC5)cccc3n2CCC1(F)F (single isomer, unassigned) [Example 340-P2] | ≤ 50 | ≤ 50 | > 10000 | – | –
4 | CC1(C)Cn2c(nc3c(NC(=O)c4ccc(NS(=O)(=O)CCO)cc4N4CCC5(CC4)CC5)cccc32)CO1 [Compound 391, N-(3,3-dimethyl-3,4-dihydro-1H-benzo[4,5]imidazo[2,1-c][1,4]oxazin-9-yl)-4-((2-hydroxyethyl)sulfonamido)-2-(6-azaspiro[2.5]octan-6-yl)benzamide] | 50 to 500 | – | – | > 10000 | ≤ 50
5 | CC1(C)Cn2c(cc3c(NC(=O)c4ccc(NS(=O)(=O)CCO)cc4N4CCC5(CC4)CC5)ccc(C#N)c32)CO1 [Compound 392, N-(6-cyano-3,3-dimethyl-3,4-dihydro-1H-[1,4]oxazino[4,3-a]indol-9-yl)-4-((2-hydroxyethyl)sulfonamido)-2-(6-azaspiro[2.5]oct-6-yl)benzamide] | ≤ 50 | – | – | 6100 | ≤ 50
6 | CC1(C)Cn2c(cc3c(NC(=O)c4ccc(NS(=O)(=O)CCO)cc4N4CCC(=C(F)F)CC4)ccc(C#N)c32)CO1 [Compound 393, N-(6-cyano-3,3-dimethyl-3,4-dihydro-1H-[1,4]oxazino[4,3-a]indol-9-yl)-2-(4-(difluoromethylene)piperidin-1-yl)-4-((2-hydroxyethyl)sulfonamido)benzamide] | 50 to 500 | – | – | > 10000 | 50 to 500
7 | CC1(C)Cn2c(nc3c(NC(=O)c4ccc(NS(=O)(=O)CCO)cc4N4CCC(=C(F)F)CC4)cccc32)CO1 [Compound 394, 2-(4-(difluoromethylene)piperidin-1-yl)-N-(3,3-dimethyl-3,4-dihydro-1H-benzo[4,5]imidazo[2,1-c][1,4]oxazin-9-yl)-4-((2-hydroxyethyl)sulfonamido)benzamide] | ≤ 50 | – | – | > 10000 | ≤ 50
8 | CC1(C)OCCn2c1cc1c(NC(=O)c3ccc(NS(=O)(=O)CCO)cc3N3CCC(=C(F)F)CC3)cccc12 [Compound 395, 2-(4-(difluoromethylene)piperidin-1-yl)-N-(1,1-dimethyl-3,4-dihydro-1H-[1,4]oxazino[4,3-a]indol-9-yl)-4-((2-hydroxyethyl)sulfonamido)benzamide] | ≤ 50 | – | – | > 10000 | 50 to 500
9 | O=C(Nc1cccc2c1cc1n2CC2CCC1O2)c1ccc(NS(=O)(=O)CCO)cc1N1CCC(=C(F)F)CC1 (stereo not shown) [Compound 398, 2-(4-(difluoromethylene)piperidin-1-yl)-4-((2-hydroxyethyl)sulfonamido)-N-(7,8,9,10-tetrahydro-6H-7,10-epoxyazeto[1,2-a]indol-1-yl)benzamide] | 50 to 500 | ≤ 50 | > 10000 | – | –
10 | COc1ccc(NC(=O)c2ccc(NS(=O)(=O)CCO)cc2N2CCC(=C(F)F)CC2)c2cc3n(c12)CCOC3 [Compound 405, 2-(4-(difluoromethylene)piperidin-1-yl)-4-((2-hydroxyethyl)sulfonamido)-N-(6-methoxy-3,4-dihydro-1H-[1,4]oxazinyl[4,3-a]indol-9-yl)benzamide] | ≤ 50 | ≤ 50 | > 10000 | – | –
11 | Nc1cc(NS(=O)(=O)CCO)cc(N2CCC3(CC2)CC3)c1C(=O)Nc1cccc(N2CCC(F)(F)CC2)c1 [Example 1, 2-amino-N-(3-(4,4-difluoropiperidin-1-yl)phenyl)-4-((2-hydroxyethyl)sulfonamide)-6-(6-azaspiro[2.5]octan-6-yl)benzamide] | ≤ 50 | ≤ 50 | – | – | –
12 | CNc1cc(NS(=O)(=O)CCO)cc(N2CCC3(CC2)CC3)c1C(=O)Nc1cc(C)nc(N2CCC(F)(F)CC2)n1 [Example 4, N-(2-(4,4-difluoropiperidin-1-yl)-6-methylpyrimidin-4-yl)-4-(2-hydroxyethylsulfonamide)-2-methylamino-6-(6-azaspiro[2.5]octan-6-yl)benzamide] | 50 to 500 | ≤ 50 | 8300 | – | –
13 | O=C(Nc1cccc2c1cc1n2CCOC1)c1ccc(NS(=O)(=O)CCO)cc1N1CCC2(CC1)CC2 [Example 235, N-(3,4-dihydro-1H-[1, 4]oxazino[4,3-a]indol-9-yl)-4-(2-hydroxyethylsulfonamido)-2-(6-azaspiro[2.5]octan-6-yl)benzamide] | ≤ 50 | – | – | > 10000 | ≤ 50
14 | O=C(Nc1ccc(F)c2c1nc1n2CCOC1)c1ccc(NS(=O)(=O)CCO)cc1N1CCC2(CC1)CC2 [Example 308, N-(6-fluoro-3,4-dihydro-1H-benzo[4,5]imidazo[2,1-c][1,4]oxazin-9-yl)-4-((2-hydroxyethyl)sulfonamido)-2-(6-azaspiro[2.5]octan-6-yl)benzamide] | ≤ 50 | – | – | > 10000 | ≤ 50
15 | N#Cc1ccc(NC(=O)c2ccc(NS(=O)(=O)CCO)cc2N2CCC3(CC2)CC3)c2cc3n(c12)CCOC3 [Example 310, N-(6-cyano-3,4-dihydro-1H-[1,4]oxazino[4,3-a]indol-9-yl)-4-((2-hydroxyethyl)sulfonamido)-2-(6-azaspiro[2.5]oct-6-yl)benzamide] | ≤ 50 | – | – | > 10000 | ≤ 50
16 | O=C(Nc1cccc2c1cc1n2CCOC1)c1ccc(NS(=O)(=O)CCO)cc1N1CCC(=C(F)F)CC1 [Example 319, 2-(4-difluoromethylene)piperidin-1-yl-N-(3,4-dihydro-1H-[1,4]oxazino[4,3-a]indol-9-yl)-4-((2-hydroxyethyl)sulfonamide) benzamide] | ≤ 50 | ≤ 50 | > 10000 | – | –
17 | O=C(Nc1ccc(F)c2c1cc1n2CCOC1)c1ccc(NS(=O)(=O)CCO)cc1N1CCC(=C(F)F)CC1 [Example 321, 2-(4-(difluoromethylene)piperidin-1-yl)-N-(6-fluoro-3,4-dihydro-1H-[1,4]oxazino[4,3-a]indol-9-yl)-4-((2-hydroxyethyl)sulfonamido)benzamide] | ≤ 50 | – | – | > 10000 | 50 to 500
18 | N#Cc1ccc(NC(=O)c2ccc(NS(=O)(=O)CCO)cc2N2CCC(=C(F)F)CC2)c2cc3n(c12)CCOC3 [Example 364, N-(6-cyano-3,4-dihydro-1H-[1,4]oxazino[4,3-a]indol-9-yl)-2-(4-(difluoromethylene)piperidin-1-yl)-4-((2-hydroxyethyl)sulfonamido)benzamide] | ≤ 50 | – | – | 9400 | 50 to 500
19 | CC1(C)Cn2c(cc3c(NC(=O)c4ccc(NS(=O)(=O)CCO)cc4N4CCC(=C(F)F)CC4)cccc32)CO1 [Example 370, 2-(4-(difluoromethylene)piperidin-1-yl)-N-(3,3-dimethyl-3,4-dihydro-1H-[1,4]oxazino[4,3-a]indol-9-yl)-4-((2-hydroxyethyl)sulfonamido)benzamide] | 50 to 500 | – | – | > 10000 | ≤ 50
20 | CC1(C)Cn2c(cc3c(NC(=O)c4ccc(NS(=O)(=O)CCO)cc4N4CCC5(CC4)CC5)cccc32)CO1 [Example 371, N-(3,3-dimethyl-3,4-dihydro-1H-[1,4]oxazino[4,3-a]indol-9-yl)-4-(2-hydroxyethylsulfonamido)-2-(6-azaspiro[2.5]octan-6-yl)benzamide] | ≤ 50 | – | – | > 10000 | ≤ 50
21 | CC1(O)CCCn2c1cc1c(NC(=O)c3ccc(NS(=O)(=O)CCO)cc3N3CCC4(CC3)CC4)cccc12 (stereo not shown) [Example 372] | ≤ 50 | ≤ 50 | > 10000 | – | –
22 | CC1(C)Cn2c(cc3c(NC(=O)c4ccc(NS(=O)(=O)CCO)cc4N4CCC5(CC4)CC5)ccc(OC(F)F)c32)CO1 [Example 523] | 50 to 500 | ≤ 50 | – | – | –
